The values that follow come from patent US12384753B2, “17-beta-hydroxysteroid dehydrogenase type 13 inhibitors and methods of use thereof” (Enanta Pharmaceuticals, Inc., priority 2021, dated 2025).

Structures are written as SMILES. A value given as a limit tells only on which side of the number the result lay.

What is called IC50 is the point on the concentration scale where inhibition reaches its midpoint.

The target of the assay is Recombinant human HSD17B13 (Homo sapiens (Human), UniProt Q7Z5P4). As to the kind of experiment: HSD17B13 rapid-fire mass spectrometry assay (RF/MS assay). It is filed as biochemical. The conditions noted are these: inhibition of HSD17B13; LTB4 10 μM, NAD+ 0.5 mM, RT 3 h; IC50 ranges A-E. In a few lines: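 Product 12-oxo-LTB4 and substrate LTB4 quantified by RapidFire triple-quad MS in negative mode, giving percent conversion. Reaction: 80 nM recombinant hHSD17B13, 10 μM LTB4, 0.5 mM NAD+, compound up to 100 μM, pH 7.5, RT, 3 h. Variable-slope fit gave IC50; run in duplicate.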
Chain of Recombinant human HSD17B13 (Q7Z5P4 20-300): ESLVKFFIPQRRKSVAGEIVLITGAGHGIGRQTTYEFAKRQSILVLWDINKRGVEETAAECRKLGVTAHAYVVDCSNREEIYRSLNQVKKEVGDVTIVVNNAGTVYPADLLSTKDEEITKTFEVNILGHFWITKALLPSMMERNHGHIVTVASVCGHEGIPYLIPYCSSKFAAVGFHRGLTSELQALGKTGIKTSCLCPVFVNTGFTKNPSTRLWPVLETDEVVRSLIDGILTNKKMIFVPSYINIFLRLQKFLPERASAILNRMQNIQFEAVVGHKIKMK
Regarding `COc1cc(C(=O)O)ccc1NS(=O)(=O)c1csc(N2CCN(C(=O)OCc3ccccc3)CC2)n1` [Example 294], the IC50 was 100 to 500 nM.
Consider `COc1cc(C(=O)O)ccc1NS(=O)(=O)c1csc(-c2ccc(C3CCOCC3)cc2)n1` [Example 370], for which the IC50 fell in the range of 500 to 1000 nM.
`COc1cc(C(=O)O)ccc1NS(=O)(=O)c1csc(C2=CCC(C)(C)CC2)n1` [Example 454, 4-((2-(4,4-dimethylcyclohex-1-en-1-yl)thiazole)-4-sulfonamido)-3-methoxybenzoic acid]: the IC50 lay within 100 to 500 nM.
To `C=C(COC)c1ccc(-c2nc(S(=O)(=O)Nc3ccc(C(=O)O)cc3OC)cs2)cc1` [Example 406, 3-methoxy-4-((2-(4-(3-methoxyprop-1-en-2-yl)phenyl)thiazole)-4-sulfonamido)benzoic acid] belongs 100 to 500 nM.
With `COc1cc(C(=O)O)c(F)cc1NS(=O)(=O)c1csc(-c2ccc(-c3ccc(C(C)(F)F)cc3)cc2C(F)(F)F)n1` [Example 756], the IC50 is < 100 nM.
The value for `COc1cc(C(=O)O)c(F)cc1NS(=O)(=O)c1cnn(-c2ccc([C@H]3CC[C@@H](C(F)(F)F)CC3)cc2)c1` [Example 685, 2-fluoro-5-methoxy-4-((1-(4-((1s,4s)-4-(trifluoromethyl)cyclohexyl)phenyl)-1H-pyrazole)-4-sulfonamido)benzoic acid] was 100 to 500 nM; that for `COc1cc(C(=O)O)c(F)cc1NS(=O)(=O)c1csc(-c2ccc(C3CCC(C)(C)CC3)c(F)c2C(F)F)n1` [Example 583] was < 100 nM.
Consider `COc1cc(C(=O)O)cnc1NS(=O)(=O)c1cnc(-c2ccc(F)cc2)s1` [Example 85], for which the IC50 fell in the range of 100 to 500 nM.
With `CCCCOc1c(C2=CCC(C)(C)CC2)ccc(-c2nc(S(=O)(=O)Nc3cc(F)c(C(=O)O)cc3OC)cs2)c1F` [Example 578], the IC50 lay in the range of 100 to 500 nM.
As for `COc1cc(C(=O)O)c(F)cc1NS(=O)(=O)c1cccc(-c2ccc([C@H]3CC[C@H](C(C)(C)C)CC3)cc2)c1F` [Example 612], the IC50 was < 100 nM.
Take `O=C(O)C1CCN(S(=O)(=O)c2cnc(-c3ccc(F)cc3)s2)CC1` [Example 64]: the IC50 was 1000 to 100000 nM.
To `COC(=O)c1ccc(NS(=O)(=O)c2cnc(-c3ccc(F)cc3)s2)cc1C` [Example 18] belongs 1000 to 100000 nM; to `COc1cc(C(=O)O)ccc1NS(=O)(=O)c1csc(-c2ccc(C#N)cc2)n1` [Example 148], 1000 to 100000 nM; to `COc1cc(C(=O)O)ccc1NS(=O)(=O)N1Cc2nc(-c3ccc(C4CCCCC4)cc3)sc2C1` [Example 344], 500 to 1000 nM.
To `COc1cc(C(=O)O)ccc1NS(=O)(=O)c1csc(C#Cc2ccc(C#N)cc2)n1` [Example 223] belongs 1000 to 100000 nM; to `O=C(O)c1ccc2c(c1)N(S(=O)(=O)c1ccc(F)cc1)CC2` [Example 10], 1000 to 100000 nM.
The value for `COc1cc(NS(=O)(=O)c2cnc(-c3ccc(F)cc3)s2)ccc1C(=O)O` [Example 22] was 1000 to 100000 nM; that for `COc1cc(C(=O)O)c(F)cc1NS(=O)(=O)c1ccc2sc(-c3ccc([C@H]4CC[C@H](C(F)(F)F)CC4)cc3)nc2c1` [Example 650] was 100 to 500 nM; that for `O=C(O)c1ccc(S(=O)(=O)Nc2ccc(-c3nccs3)cc2)cc1` [Example 51] was 1000 to 100000 nM.
With `COc1cc(C(=O)O)ccc1NS(=O)(=O)c1cnc(-c2ccc(C3CCC(c4ccccc4)CC3)cc2)s1` (stereo not drawn) [Example 452, 3-methoxy-4-((2-(4-(4-phenylcyclohexyl)phenyl)thiazole)-5-sulfonamido)benzoic acid], the IC50 lay within 100 to 500 nM.
To `CCCOc1c(C2=CCC(C)(C)CC2)ccc(-c2nc(S(=O)(=O)Nc3cc(F)c(C(=O)O)cc3OC)cs2)c1F` [Example 576] belongs 100 to 500 nM; to `COc1cc(C(=O)O)c(F)cc1NS(=O)(=O)c1csc(-c2ccc(C3=CCC(C)(C)CC3)c(OC)c2)n1` [Example 523], < 100 nM; to `CC(C)Oc1cc(C(=O)O)ccc1NS(=O)(=O)c1cnc(-c2ccc(F)cc2)s1` [Example 37], 1000 to 100000 nM.
The value for `O=C(O)c1ccc(NS(=O)(=O)c2cccc(S(=O)(=O)Nc3ccc(C(=O)O)cc3O)c2)c(O)c1` [Example 170] was 100 to 500 nM; that for `COc1cc(C(=O)O)c(F)cc1NS(=O)(=O)c1csc(-c2ccc(-c3ccccc3O)cc2)n1` [Example 531] was 100 to 500 nM; that for `COc1cc(C(=O)O)c(F)cc1NS(=O)(=O)c1coc(-c2ccc(C3CCC(OC(=O)N4CCOCC4)CC3)cc2)n1` (stereo not drawn) [Example 630] was < 100 nM.
On to `COc1cc(C(=O)O)ccc1NS(=O)(=O)c1cccc(-c2ccc(C3CCC(C)(C)CC3)cc2)c1F` [Example 473], for which the IC50 was 100 to 500 nM.
Turning to `COc1cc(C(=O)O)ccc1NS(=O)(=O)c1csc(N2CCN(c3ccc(C(F)(F)F)cc3)CC2)n1` [Example 272], the IC50 is 100 to 500 nM.
As for `COc1cc(C(=O)O)c(F)cc1NS(=O)(=O)c1csc(-c2ccc(C3CCC(C)(C)CC3)c(OC)c2F)n1` [Example 548], the IC50 is < 100 nM.
The value for `COc1cc(C(=O)O)c(F)cc1NS(=O)(=O)c1ncc(-c2ccc(F)cc2)s1` [Example 614] was < 100 nM; that for `COc1cc(C(=O)O)c(F)cc1NS(=O)(=O)c1cnc(-c2ccc([C@H]3CC[C@@H](C(C)C)CC3)cc2)s1` [Example 729] was 100 to 500 nM; that for `COc1cccc(-c2ccc(S(=O)(=O)Nc3ccc(C(=O)O)cc3OC)s2)c1` [Example 200] was < 100 nM.
With `CONC(=O)c1ccc(NS(=O)(=O)c2cnc(-c3ccc(F)cc3)s2)c(OC)c1` [Example 70], the IC50 was 1000 to 100000 nM.
Take `COc1cc(C(=O)O)c(F)cc1NS(=O)(=O)c1csc(-c2ccc(-c3ccc(C45CC6C[C@H](C4)C[C@H](C6)C5)cc3)cc2C(F)(F)F)n1` [Example 775]: the IC50 is < 100 nM.
For `COc1cc(C(=O)O)ccc1NS(=O)(=O)c1ccc(-c2cccc(-c3ccc(C)cc3)c2)s1` [Example 250, 3-methoxy-4-((5-(4′-methyl-[1,1′-biphenyl]-3-yl)thiophene)-2-sulfonamido)benzoic acid], the IC50 was 100 to 500 nM.
The value for `COc1cc(C(=O)O)ccc1NS(=O)(=O)c1cccc(-c2ccc(F)cc2)n1` [Example 411, 4-((6-(4-fluorophenyl)pyridine)-2-sulfonamido)-3-methoxybenzoic acid] was 500 to 1000 nM.
To `COc1cc(C(=O)O)c(F)cc1NS(=O)(=O)c1cnc(-c2ccc(C3CCC(c4ccccc4)CC3)cc2)s1` (stereo not drawn) [Example 643] belongs 100 to 500 nM.
The value for `COc1cc(C(=O)O)ccc1NS(=O)(=O)c1ccc(-c2ccc(O)cc2)s1` [Example 180] was 100 to 500 nM; that for `COc1cc(C(=O)O)c(F)cc1NS(=O)(=O)c1cnc(-c2ccc(-c3ccc(C45CC6C[C@H](C4)C[C@H](C6)C5)cc3)cc2)s1` [Example 766] was 100 to 500 nM.
For `COc1cc(C(=O)O)c(F)cc1NS(=O)(=O)c1csc(-c2ccc(-c3cc4ccccc4[nH]3)cc2)n1` [Example 637], the half-maximal inhibitory concentration (IC50) was in the range of 100 to 500 nM.
Consider `O=C(O)c1cnc(NS(=O)(=O)c2cnc(-c3ccc(F)cc3)s2)o1` [Example 104], for which the IC50 was in the range of 1000 to 100000 nM.
The value for `COc1cc(C(=O)O)ccc1NS(=O)(=O)c1ccc(-c2cccc(C(F)(F)F)c2)s1` [Example 212] was < 100 nM; that for `COc1cc(C(=O)O)ccc1NS(=O)(=O)c1csc(N2Cc3ccccc3C2)n1` [Example 255] was 1000 to 100000 nM.
Consider `COc1cc(C(=O)O)ccc1NS(=O)(=O)c1ccc(C2=CCC3(CC2)OCCO3)cc1F` [Example 356], for which the IC50 lay within 100 to 500 nM.
To `O=C(O)c1ccc(NS(=O)(=O)c2csc(-c3ccc(O)cc3)n2)c(O)c1` [Example 112] belongs 100 to 500 nM; to `O=C(O)c1ccc(NS(=O)(=O)c2cnc(-c3ccc(F)cc3)s2)c(OC(F)F)c1` [Example 49], 1000 to 100000 nM.
The value for `COc1cc(C(=O)O)ccc1NS(=O)(=O)N1Cc2ccc(-c3ccc(F)cc3)cc2C1` [Example 334] was 100 to 500 nM.
Take `COc1cc(C(=O)O)ccc1NS(=O)(=O)c1csc(C#Cc2ccc(C(F)(F)F)cc2)n1` [Example 182]: the IC50 is < 100 nM.
To `COc1cc(C(=O)O)c(F)cc1NS(=O)(=O)c1ccc2nc(-c3ccc([C@H]4CC[C@H](C(F)(F)F)CC4)cc3)sc2c1` [Example 659] belongs 500 to 1000 nM; to `COc1cc(C(=O)O)ccc1NS(=O)(=O)c1csc(-c2cccc3ccncc23)n1` [Example 155], 1000 to 100000 nM; to `COc1cc(C(=O)O)ccc1NS(=O)(=O)c1csc(-c2ccc(OC)c3ccccc23)n1` [Example 154], 500 to 1000 nM.
With `COc1cc(C(=O)O)ccc1NS(=O)(=O)c1csc(N2CCCC(Cc3ccc(C)cc3)C2)n1` (stereo not drawn) [Example 274], the 50% inhibitory concentration (IC50) is 500 to 1000 nM.
Consider `CCC[C@H]1CC[C@H](c2ccc(-c3nc(S(=O)(=O)Nc4ccc(C(=O)O)cc4OC)cs3)cc2)CC1` [Example 350], for which the IC50 is < 100 nM.
For the molecule `COc1cc(C(=O)O)ccc1NS(=O)(=O)c1coc(-c2ccc(OC(F)(F)F)cc2)n1` [Example 416], the IC50 was < 100 nM.
For the molecule `COc1cc(C(=O)O)c(F)cc1NS(=O)(=O)c1csc(-c2ccc(C3=CCC(C)(C)CC3)cc2C)n1` [Example 556], the IC50 was < 100 nM.
As to `COc1cc(C(=O)O)c(F)cc1NS(=O)(=O)c1cnc(-c2ccc(C3=CCC(C(C)C)CC3)cc2)s1` (stereo not drawn) [Example 765], the IC50 was in the range of 100 to 500 nM.
The value for `COc1cc(C(=O)O)c(F)cc1NS(=O)(=O)c1csc(-c2ccc(C3=CCC(C)(C)CC3)c(OC(F)(F)F)c2)n1` [Example 537] was < 100 nM; that for `COc1cc(C(=O)O)c(F)cc1NS(=O)(=O)c1csc(-c2cc(F)c(C3=CCC(C)(C)CC3)cc2F)n1` [Example 518] was 100 to 500 nM.
In the case of `O=S(=O)(Nc1ccccc1)c1csc(-c2ccccc2)n1` [Example 25], the IC50 is > 100000 nM.
As for `COc1cc(C(=O)O)c(F)cc1NS(=O)(=O)c1csc(-c2ccc(C3CCC(C)(C)CC3)cc2C)n1` [Example 559], the IC50 is < 100 nM.
